Experiments:
[1] = Crystal; visual observation
[2] = relative permittivity at zero frequency (dimensionless); settings: 101.3 kPa, Liquid, Parallel plate capacitor

C1COCCOCCOCCOCCO1 [1,4,7,10,13-pentaoxacyclopentadecane]
Settings | Normal melting temperature [°C]
[1] | -20

[2]
Settings | relative permittivity at zero frequency
273.15 K | 17.82
275.65 K | 17.56
278.15 K | 17.3
280.65 K | 17.05
283.15 K | 16.81
285.65 K | 16.57
288.15 K | 16.34
290.65 K | 16.11
293.15 K | 15.89
295.65 K | 15.68
298.15 K | 15.48
300.65 K | 15.28
303.15 K | 15.08
305.65 K | 14.88
308.15 K | 14.69
310.65 K | 14.5
313.15 K | 14.31
315.65 K | 14.14
318.15 K | 13.96
320.65 K | 13.79
323.15 K | 13.63
325.65 K | 13.46
328.15 K | 13.3
330.65 K | 13.15
333.15 K | 13

C1COCCOCCOCCO1 [1,4,7,10-tetraoxacyclododecane]
Settings | Normal melting temperature [°C]
[1] | 16

[2]
Settings | relative permittivity at zero frequency
295.65 K | 10.95
298.15 K | 10.82
300.65 K | 10.7
303.15 K | 10.58
305.65 K | 10.45
308.15 K | 10.34
310.65 K | 10.22
313.15 K | 10.11
315.65 K | 10
318.15 K | 9.9
320.65 K | 9.79
323.15 K | 9.69
325.65 K | 9.59
328.15 K | 9.49
330.65 K | 9.41
333.15 K | 9.31
335.65 K | 9.22
338.15 K | 9.13
340.65 K | 9.04
343.15 K | 8.94
345.65 K | 8.86
348.15 K | 8.76
350.65 K | 8.68
353.15 K | 8.59

C1COCCOCCOCCOCCOCCO1 [1,4,7,10,13,16-hexaoxacyclooctadecane]
Settings | Normal melting temperature [°C]
[1] | 43.4

[2]
Settings | relative permittivity at zero frequency
315.65 K | 8.9
318.15 K | 8.86
320.65 K | 8.82
323.15 K | 8.77
325.65 K | 8.73
328.15 K | 8.69
330.65 K | 8.64
333.15 K | 8.59
335.65 K | 8.54
338.15 K | 8.49
340.65 K | 8.44
343.15 K | 8.39
345.65 K | 8.34
348.15 K | 8.29
350.65 K | 8.24
353.15 K | 8.19
